Measurements from patent US11985975B1, “N-[(2-{[(furan-ylcarbonyl)carbamothioyl]amino }phenyl)carbamothioyl]furan-2-carboxamide as an eco-friendly insecticidal agent against Spodoptera littoralis (boisd.)” (KING FAISAL UNIVERSITY, priority 2023, dated 2024).
Converted amounts (≈) assume the structure as drawn. Where two headings read alike, the source gives them in different places.

System: Spodoptera littoralis larvae (second and fourth instars)
Assay: Insecticidal bioassay screening (castor leaf dip), laboratory strain of cotton leafworm
Type: in vivo
Details: for LC90 (mg/L) at 95%: after 72 hrs of treatment; for Toxicity index %: after 72 hrs, reference LC50/compound LC50 x 100; for LC50: Spodoptera littoralis, foliar
Description: Five concentrations (200, 100, 50, 25, 12.5 ppm) were designed for this synthetic compound and the reference Diflubenzuron compound as the dynamic ingredients based on ppm via diluting the commercial formulation.
In this experiment, castor leaves are immersed in each of the previously prepared concentrations of the components for 10 seconds and then left to dry for 60 minutes. Larvae of the second and fourth instars of each checked strain are prepared with treated leaves in gauze-covered glass containers for 72 hrs. An untreated control is made in which leaves are dipped in triton x-100 and distilled water only. Then the preserved leaves were removed & fresh, untreated leaves were provided for 72 hours. Three replicates (10 larvae each) were checked for each concentration. Daily inspection was carried out for all treatments and mortality percentages were recorded 3 days (72 hours) after treatment. The average mortality percentage was corrected employing Abbott's formula. The corrected mortality rate for each of the previously synthesized compounds is statistically calculated according to Finney (1970). Through this rate, the corresponding concentration test lines (LDP lines) are assessed.

[1] = 72 h, read-out: LC50 (mg/L) at 95%, 2nd instar larvae, after 72 hrs of treatment
[2] = 72 h, read-out: LC50 (mg/L) at 95%, 4th instar larvae, after 72 hrs of treatment
[3] = against Spodoptera littoralis under laboratory conditions (instar not stated)

| Structure (SMILES) | LC90 (mg/L) at 95% (2nd instar larvae) | Toxicity index % (2nd instar larvae) | LC90 (mg/L) at 95% (4th instar larvae) | Toxicity index % (4th instar larvae) | LC50 [1] | LC50 [2] | LC50 [3] | Insecticidal activity (in words) (compared with reference insecticide Diflubenzuron) |
| --- | --- | --- | --- | --- | --- | --- | --- | --- |
| O=C(NC(=O)c1c(F)cccc1F)Nc1ccc(Cl)cc1 [Diflubenzuron, reference compound] | 520.0 mg/L (≈ 1670 µM) | 100% | 1540.5 mg/L (≈ 4960 µM) | 100% | 45.2 mg/L (≈ 145 µM) | 144 mg/L (≈ 464 µM) | 45.2 mg/L (≈ 145 µM) | – |
| O=C(NC(=S)Nc1ccccc1NC(=S)NC(=O)c1ccco1)c1ccco1 [Compound 2, N-[(2-{[(furan-ylcarbonyl)carbamothioyl]amino}phenyl)carbamothioyl]furan-2-carboxamide] | 7450.5 mg/L (≈ 18000 µM) | 10.6% | 1837.2 mg/L (≈ 4430 µM) | 14.7% | 424 mg/L (≈ 1020 µM) | 976 mg/L (≈ 2350 µM) | 424 mg/L (≈ 1020 µM) | active against Spodoptera littoralis |
